Results from US12599616B2, “Subtituted sulfonylurea and sulfoximineurea derivatives” (Zydus Lifesciences Limited, priority 2020, dated 2026).

System: IL-1β
Experiment: In vitro IL-1β inhibition in PMA-differentiated, LPS-primed, ATP-stimulated THP1 cells
Type: cell-based
Conditions: Homo sapiens, THP-1; THP1 monocytes differentiated with PMA, primed with 500 ng/ml LPS 4 h, compound 30 min, 5 mM ATP 1 hr; IL-1b in supernatant; read-out: invitro IL-1β inhibitory activity (IC50)
Procedure: THP1 monocytes were differentiated with PMA (100 ng/ml) and incubated at 37° C. for 20 hrs in presence of 5% CO2. 2×10^5 differentiated cells were plated per well of 96 well tissue culture plates. The cells were primed using 500 ng/ml Lipopolysaccharide and incubating for 4 h under the same condition. The cells were then treated with various concentrations of the compounds for 30 min followed by treatment with 5 mM ATP for 1 hr. The supernatants were collected and analyzed by IL-1b (Mabtech Cat #3415-1H-20) or TNF-a (Mabtech; Cat #3510-1H-20) detection kit. The data were analyzed using GraphPad Prism V7.0. Dose Response Curve (DRC) was constructed to determine the IC50 value by fitting percentage cell survival data to the GraphPad Prism using nonlinear regression analysis.

| IC50 [nM] | SMILES |
| --- | --- |
| 6.6 | O=C(Nc1c2c(cc3c1CCC3)CCC2)NS(=O)(=O)/C=C/CN1CCCC1 [Example 18, (E)-N-((1,2,3,5,6,7-hexahydro-s-indacen-4-yl)carbamoyl)-3-(pyrrolidin-1-yl)prop-1-ene-1-sulfonamide] |
| 5.6 | CN(C)C(C)(C)/C=C/S(=O)(=O)NC(=O)Nc1c2c(cc3c1CCC3)CCC2 [Example 6, (E)-3-(dimethylamino)-N-((1,2,3,5,6,7-hexahydro-s-indacen-4-yl)carbamoyl)-3-methylbut-1-ene-1-sulfonamide] |
| 12.6 | CC(C)(/C=C/S(=O)(=O)NC(=O)Nc1c2c(cc3c1CCC3)CCC2)N1CCCC1 [Example 42, (E)-N-((1,2,3,5,6,7-hexahydro-s-indacen-4-yl)carbamoyl)-3-methyl-3-(pyrrolidin-1-yl)but-1-ene-1-sulfonamide] |
| 6.5 | CN(C)C(C)(C)/C=C/S(=O)(=NC#N)NC(=O)Nc1c2c(cc3c1CCC3)CCC2 (stereo not drawn) [Example 49, (E)-N′-cyano-3-(dimethylamino)-N-((1,2,3,5,6,7-hexahydro-s-indacen-4-yl)carbamoyl)-3-methylbut-1-ene-1-sulfonimidamide] |
| 9.9 | CCN(C)C(C)(C)/C=C/S(=O)(=O)NC(=O)Nc1c2c(cc3c1CCC3)CCC2 [Example 20, (E)-3-(ethyl(methyl)amino)-N-((1,2,3,5,6,7-hexahydro-s-indacen-4-yl)carbamoyl)-3-methylbut-1-ene-1-sulfonamide] |
| 43 | CC(C)NC/C=C/S(=O)(=O)NC(=O)Nc1c2c(cc3c1CCC3)CCC2 [Example 1, (E)-N-((1,2,3,5,6,7-hexahydro-s-indacen-4-yl)carbamoyl)-3-(isopropylamino)prop-1-ene-1-sulfonamide] |
| 20 | CC(C)N(C)C/C=C/S(=O)(=O)NC(=O)Nc1c2c(cc3c1CCC3)CCC2 [Example 5, (E)-N-((1,2,3,5,6,7-hexahydro-s-indacen-4-yl)carbamoyl)-3-(isopropyl(methyl)amino)prop-1-ene-1-sulfonamide] |
| 6 | CN(C1CCC1)C(C)(C)/C=C/S(=O)(=O)NC(=O)Nc1c2c(cc3c1CCC3)CCC2 [Example 21, (E)-3-(cyclobutyl(methyl)amino)-N-((1,2,3,5,6,7-hexahydro-s-indacen-4-yl)carbamoyl)-3-methylbut-1-ene-1-sulfonamide] |
| 11 | CC(C)CN(C)C(C)(C)/C=C/S(=O)(=O)NC(=O)Nc1c2c(cc3c1CCC3)CCC2 [Example 35, (E)-N-((1,2,3,5,6,7-hexahydro-s-indacen-4-yl)carbamoyl)-3-(isobutyl(methyl)amino)-3-methylbut-1-ene-1-sulfonamide] |
| 3.8 | CC(C)(/C=C/S(=O)(=NC#N)NC(=O)Nc1c2c(cc3c1CCC3)CCC2)NC(=O)OC(C)(C)C (stereo not drawn) [Example 47, tert-butyl (E)-(4-(N′-cyano-N-((1,2,3,5,6,7-hexahydro-s-indacen-4-yl)carbamoyl)sulfamidimidoyl)-2-methylbut-3-en-2-yl)carbamate] |
| 7.5 | CC(C)N(C)C(C)(C)/C=C/S(=O)(=O)NC(=O)Nc1c2c(cc3c1CCC3)CCC2 [Example 24, (E)-N-((1,2,3,5,6,7-hexahydro-s-indacen-4-yl)carbamoyl)-3-(isopropyl(methyl)amino)-3-methylbut-1-ene-1-sulfonamide] |
| 9.6 | CN(C)C/C=C/S(=O)(=O)NC(=O)Nc1c2c(cc3c1CCC3)CC=C2 [Example 36, (E)-3-(dimethylamino)-N-((1,2,3,7-tetrahydro-s-indacen-4-yl)carbamoyl)prop-1-ene-1-sulfonamide] |
